For 30 compounds, melting point and inhibition results are on record in patent US9890117B2, “Benzamide compounds and related methods of use” (Northwestern University, priority 2012, dated 2018).

What is called melting point is the temperature, or range, at which the solid turns liquid. By inhibition is commonly meant the share of the control response that was lost under treatment.

Structures can show the parent of a compound that is named as a salt.

One data set concerns the target T1, SIRT2 (Homo sapiens, UniProt Q8IXJ6).
T1 construct: recombinant active enzymes SIRT1, SIRT2, and the catalytically active fragment of SIRT3
T1 sequence (Q8IXJ6 1-389): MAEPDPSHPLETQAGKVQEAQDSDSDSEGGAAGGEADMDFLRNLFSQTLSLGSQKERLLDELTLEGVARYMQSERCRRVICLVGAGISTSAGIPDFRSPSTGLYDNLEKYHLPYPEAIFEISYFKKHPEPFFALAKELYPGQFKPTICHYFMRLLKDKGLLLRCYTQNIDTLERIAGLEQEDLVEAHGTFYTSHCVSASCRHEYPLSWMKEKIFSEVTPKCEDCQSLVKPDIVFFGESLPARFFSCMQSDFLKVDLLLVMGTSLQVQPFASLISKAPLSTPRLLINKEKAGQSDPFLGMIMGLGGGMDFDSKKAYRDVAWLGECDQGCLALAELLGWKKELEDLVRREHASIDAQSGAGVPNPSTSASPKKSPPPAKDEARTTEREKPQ
The data set can be described thus: Fluor-de-Lys biochemical sirtuin deacetylation assay, SIRT2. Conditions: 10 μM.

On to `CN(c1ccc(Cl)cc1)S(=O)(=O)c1cccc(C(=O)Nc2ccc(C#N)cc2F)c1` [Compound 203Ab, 3-(N-(4-chlorophenyl)-N-methylsulfamoyl)-N-(4-cyano-2-fluorophenyl)benzamide], for which the melting point is 158 to 159 °C.

In turn, `CN(C(=O)c1cccc(S(=O)(=O)N(C)c2ccc(Cl)cc2)c1)c1ccc(C#N)cc1F` [Compound 203Ac, 3-(N-(4-chlorophenyl)-N-methylsulfamoyl)-N-(4-cyano-2-fluorophenyl)-N-methylbenzamide] registered a melting point of 169 to 170 °C. At SIRT2, this compound registered an inhibition at 10 µM of 15%. On the same counts, the results for `CN(c1ccc(S(C)(=O)=O)cc1)S(=O)(=O)c1cccc(C(=O)Nc2ccc(Cl)cc2F)c1` [Compound 203Ae, N-(4-chloro-2-fluorophenyl)-3-(N-methyl-N-(4-(methylsulfonyl)phenyl)sulfamoyl)-benzamide] are 182 to 183 °C and 26%. The corresponding values for `CN(c1ccc(CN)cc1)S(=O)(=O)c1cccc(C(=O)Nc2ccc(C#N)cc2)c1.Cl` [Compound 203Af, 3-(N-(4-(aminomethyl)phenyl)-N-methylsulfamoyl)-N-(4-cyanophenyl)benzamide hydrochloride] are 169 to 171 °C and 15%. Regarding `CN(C(=O)c1cccc(S(=O)(=O)N(C)c2ccc([S+](C)[O-])cc2)c1)c1ccc(Cl)cc1F` (centres unmarked) [Compound 203Ag, N-(4-chloro-2-fluorophenyl)-N-methyl-3-(N-methyl-N-(4-(methylsulfinyl)phenyl)-sulfamoyl)benzamide], the melting point fell in the range of 104 to 106 °C. This compound also registered an inhibition at 10 µM against SIRT2 of 14%. On the same counts, the results for `CN(C(=O)c1cccc(S(=O)(=O)N(C)c2ccc(S(C)(=O)=O)cc2)c1)c1ccc(Cl)cc1F` [Compound 203Ah, N-(4-chloro-2-fluorophenyl)-N-methyl-3-(N-methyl-N-(4-(methylsulfonyl)phenyl)-sulfamoyl)benzamide] are 159 to 160 °C and 16%.

Compound `CN(c1ccc(S(C)(=O)=O)cc1)S(=O)(=O)c1cccc(C(=O)Nc2ccc(C#N)cc2F)c1` [Compound 203Ai, N-(4-cyano-2-fluorophenyl)-3-(N-methyl-N-(4-(methylsulfonyl)phenyl)-sulfamoyl)benzamide] came in with a melting point of 188 to 189 °C. 10 µM produced 16% inhibition against SIRT2. Compound `CN(c1ccc([S+](C)[O-])cc1)S(=O)(=O)c1cccc(C(=O)Nc2ccc(C#N)cc2F)c1` (centres unmarked) [Compound 203Aj, N-(4-cyano-2-fluorophenyl)-3-(N-methyl-N-(4-(methylsulfinyl)phenyl)sulfamoyl)-benzamide] had a melting point of 192 to 194 °C. This compound also gave an inhibition at 10 µM against SIRT2 of 10%. Consider `CN(C(=O)c1cccc(S(=O)(=O)N(C)c2ccc(S(C)(=O)=O)cc2)c1)c1ccc(C#N)cc1F` [Compound 203Ak, N-(4-cyano-2-fluorophenyl)-N-methyl-3-(N-methyl-N-(4-(methylsulfonyl)phenyl)-sulfamoyl)benzamide], for which the melting point was 156 to 157 °C. The inhibition at 10 µM on SIRT2 is 0%.

Consider `CN(C(=O)c1cccc(S(=O)(=O)N(C)c2ccc([S+](C)[O-])cc2)c1)c1ccc(C#N)cc1F` (centres unmarked) [Compound 203Al, N-(4-cyano-2-fluorophenyl)-N-methyl-3-(N-methyl-N-(4-(methylsulfinyl)phenyl)-sulfamoyl)benzamide], for which the melting point is 148 to 150 °C. 10 µM produced 0% inhibition against SIRT2. For `CN(c1ccc(Cl)cc1)S(=O)(=O)c1cc(C(=O)Nc2ccc(C#N)cc2)ccn1` [Compound 203Am, 2-(N-(4-chlorophenyl)-N-methylsulfamoyl)-N-(4-cyanophenyl)isonicotinamide], the melting point is 195 to 197 °C. As for `CN(c1ccc(Cl)cc1)S(=O)(=O)c1cc(C(=O)Nc2ccc([S+](C)[O-])cc2)ccn1` (centres unmarked) [Compound 203An, 2-(N-(4-chlorophenyl)-N-methylsulfamoyl)-N-(4-(methylsulfinyl)phenyl)-isonicotinamide], the melting point is 172 to 174 °C. This compound had an inhibition at 10 µM at SIRT2 of 28%. The corresponding values for `CN(c1ccc([S+](C)[O-])cc1)S(=O)(=O)c1cc(C(=O)Nc2ccc(Cl)cc2F)ccn1` (centres unmarked) [Compound 203Aq, N-(4-chloro-2-fluorophenyl)-2-(N-methyl-N-(4-(methylsulfinyl)phenyl)sulfamoyl)-isonicotinamide] are 178 to 179 °C and 14%.

Consider `CN(c1ccc([S+](C)[O-])cc1)S(=O)(=O)c1cc(C(=O)Nc2ccc(C#N)cc2)ccn1` (centres unmarked) [Compound 203Ar, N-(4-cyanophenyl)-2-(N-methyl-N-(4-(methylsulfinyl)phenyl)sulfamoyl)-isonicotinamide], for which the melting point was 243 to 245 °C (dec.). Further, the inhibition at 10 µM at SIRT2 was 20%. On the same counts, the results for `CN(c1ccc(S(C)(=O)=O)cc1)S(=O)(=O)c1cc(C(=O)Nc2ccc(C#N)cc2)ccn1` [Compound 203As, N-(4-cyanophenyl)-2-(N-methyl-N-(4-(methylsulfonyl)phenyl)sulfamoyl)-isonicotinamide] are 224 to 226 °C and 33%. On the same counts, the results for `N#Cc1ccc(NC(=O)c2cccc(S(=O)(=O)N(c3ccc(Cl)cc3)C3CC3)c2)cc1` [Compound 203Av, 3-(N-(4-chlorophenyl)-N-cyclopropylsulfamoyl)-N-(4-cyanophenyl)benzamide] are 180 to 182 °C and 51%. On the same counts, the results for `CC(=O)c1ccc(N(C2CC2)S(=O)(=O)c2cccc(C(=O)Nc3ccc(C#N)cc3)c2)cc1` [Compound 203Aw, 3-(N-(4-acetylphenyl)-N-cyclopropylsulfamoyl)-N-(4-cyanophenyl)benzamide] are 185 to 186 °C and 61%.

As for `CCN(c1ccc(O)cc1)S(=O)(=O)c1cccc(C(=O)Nc2ccc(C#N)cc2)c1` [Compound 203Ay, N-(4-cyanophenyl)-3-(N-ethyl-N-(4-hydroxyphenyl)sulfamoyl)benzamide], the melting point lay in the range of 102 to 104 °C. The inhibition at 10 µM at SIRT2 amounted to 40%. The corresponding values for `CCOc1ccc(N(CC)S(=O)(=O)c2cccc(C(=O)Nc3ccc(C#N)cc3)c2)cc1` [Compound 203Az, N-(4-cyanophenyl)-3-(N-(4-ethoxyphenyl)-N-ethylsulfamoyl)benzamide] are 168 to 169 °C and 59%.

For `CN(C(=O)c1cccc(S(=O)(=O)N(C)c2ccc(Br)cc2)c1)c1ccc(Cl)cc1F` [Compound 203p, 3-(N-(4-bromophenyl)-N-methylsulfamoyl)-N-(4-chloro-2-fluorophenyl)-N-methylbenzamide], the melting point fell in the range of 127 to 128 °C. On the same count and under the same terms, in the case of `CN(C(=O)c1cccc(S(=O)(=O)N(C)c2ccc(Br)cc2)c1)c1ccc(Br)cc1F` [Compound 203s, N-(4-bromo-2-fluorophenyl)-3-(N-(4-bromophenyl)-N-methylsulfamoyl)-N-methylbenzamide] it was 136 to 137 °C. With `N#Cc1cccc(NC(=O)c2cncc(CN(Cc3ccc(F)c(F)c3)C3CC3)c2)c1` [Compound 225w, N-(3-cyanophenyl)-5-((cyclopropyl(3,4-difluorobenzyl)amino)methyl)nicotinamide hydrochloride], the inhibition at 10 µM at SIRT2 stood at 20%. On SIRT2, `CC(=O)c1ccc(CN(Cc2cccc(C(=O)Nc3ccc(C#N)cc3)c2)C2CC2)cc1` [Compound 225x, 3-(((4-acetylbenzyl)(cyclopropyl)amino)methyl)-N-(4-cyanophenyl)benzamide hydrochloride] had an inhibition at 10 µM of 24%. `O=C(Cc1ccc(Cl)cc1)c1cccc(S(=O)(=O)N2CCCCCC2)c1` [Compound 231a, 1-(3-(azepan-1-ylsulfonyl)phenyl)-2-(4-chlorophenyl)ethanone] showed a melting point of 135 to 136 °C.

In the case of `CN(c1ccc(Cl)cc1)S(=O)(=O)c1cccc(NC(=O)Nc2ccc(Cl)cc2)c1` [Compound 233a, N-(4-chlorophenyl)-3-(3-(4-chlorophenyl)ureido)-N-methylbenzenesulfonamide], the inhibition at 10 µM against SIRT2 is 0%.

Compound `N#Cc1ccc(/N=C(/N)c2cccc(OCc3cccc(F)c3F)c2)cc1` [Compound 234a, N′-(4-cyanophenyl)-3-((2,3-difluorobenzyl)oxy)benzimidamide hydrochloride] showed an inhibition at 10 µM at SIRT2 of 12%. The same measure, in the same setting: to `N#Cc1ccc(COc2cccc(/C(N)=N\c3ccc(C#N)cc3)c2)cc1` [Compound 234b, 3-((4-cyanobenzyl)oxy)-N′-(4-cyanophenyl)benzimidamide hydrochloride] belongs 12%; to `C[C@@H](Oc1cccc(/C(N)=N\c2ccc(C#N)cc2)c1)c1ccc(C#N)cc1` [Compound 234c, (R)—N′-(4-cyanophenyl)-3-(1-(4-cyanophenyl)ethoxy)benzimidamide hydrochloride], 39%; to `COc1ccc(N(C)S(=O)(=O)c2cccc(/C(N)=N\c3ccc(C#N)cc3)c2)cc1` [Compound 234d, N′-(4-cyanophenyl)-3-(N-(4-methoxyphenyl)-N-methylsulfamoyl)benzimidamide hydrochloride], 12%. `N/C(=N/c1cccc([N+](=O)[O-])c1)c1cccc(S(=O)(=O)N2CCCCCC2)c1` [Compound 234e, 3-(azepan-1-ylsulfonyl)-N′-(3-nitrophenyl)benzimidamide] displayed an inhibition at 10 µM on SIRT2 of 27%.
